Earlier results in patent US20230167505A1, “CIRCULATING TUMOR DNA AS A BIOMARKER FOR LEUKEMIA TREATMENT” (Cardiff Oncology, Inc., priority 2020, published 2023).

Settings: in vivo; cited from earlier work

**Q.** Which half-life does the source give for CC[C@@H]1C(=O)N(C)c2cnc(Nc3ccc(C(=O)N[C@H]4CC[C@H](N5CCN(CC6CC6)CC5)CC4)cc3OC)nc2N1C(C)C [volasertib] here?
**A.** The half-life was about 120 h.
